ChEMBL document CHEMBL1201862, “PubChem BioAssay data set” (2004)
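Dose response: 5 concentrations. Exposure: 48 h. Format: 96-well plates. Endpoint: linear interpolation; highest concentration if not reached. GI50 marks 50% less growth.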 Active and inactive are the calls of the source. Cut-off read from the data, not from the text of the source: active = GI50 up to about 1.1 µM and inactive = higher. Where a SMILES comes first, the peptide text is derived from it. The star is where a group is joined. Fmoc = O=C(OCC1c2ccccc2-c2ccccc21)*; OBn = c1ccc(CO*)cc1; tBu = CC(C)(C)*

Legend:
Experiment in all cases: growth of human tumour cells (NCI), 48 h
786-0 = test system: 786-0
NCI-H226 = test system: NCI-H226
UACC-257 = test system: UACC-257
UO-31 = test system: UO-31
OVCAR-5 = test system: OVCAR-5
OVCAR-4 = test system: OVCAR-4
A549 = test system: A549
BT-549 = test system: BT-549
SK-MEL-28 = test system: SK-MEL-28
RXF 393 = test system: RXF 393
PC-3 = test system: PC-3
HCT-15 = test system: HCT-15
NCI-H460 = test system: NCI-H460
COLO 205 = test system: COLO 205
NCI/ADR-RES = test system: NCI/ADR-RES
SF-295 = test system: SF-295
MDA-MB-435 = test system: MDA-MB-435
NCI-H23 = test system: NCI-H23
IGROV-1 = test system: IGROV-1
SN12C = test system: SN12C

| Compound | GI50 (786-0) | GI50 (NCI-H226) | GI50 (UACC-257) | GI50 (UO-31) | GI50 (OVCAR-5) | GI50 (OVCAR-4) | GI50 (A549) | GI50 (BT-549) | GI50 (SK-MEL-28) | GI50 (RXF 393) | GI50 (PC-3) | GI50 (HCT-15) [µM] | GI50 (NCI-H460) | GI50 (COLO 205) | GI50 (NCI/ADR-RES) | GI50 (SF-295) | GI50 (MDA-MB-435) | GI50 (NCI-H23) | GI50 (IGROV-1) | GI50 (SN12C) |
| --- | --- | --- | --- | --- | --- | --- | --- | --- | --- | --- | --- | --- | --- | --- | --- | --- | --- | --- | --- | --- |
| CC(OC(C)(C)C)C(NC(=O)OCC1c2ccccc2-c2ccccc21)C(=O)NC(Cc1ccccc1)C(=O)OCc1ccccc1 (stereo not given) (Fmoc-Thr(tBu)-Phe-OBn; configuration not given here) | > 100 µM (inactive) | > 100 µM (inactive) | > 100 µM (inactive) | > 46.6 µM (inactive) | > 100 µM (inactive) | > 100 µM (inactive) | > 100 µM (inactive) | > 100 µM (inactive) | > 100 µM (inactive) | > 100 µM (inactive) | > 100 µM (inactive) | > 100 | > 100 µM (inactive) | > 100 µM (inactive) | > 100 µM (inactive) | > 100 µM (inactive) | > 100 µM (inactive) | > 100 µM (inactive) | > 100 µM (inactive) | > 100 µM (inactive) |
| NS(=O)(=O)c1cc(C(=O)O)c(O)c2ccccc12 | > 100 µM (inactive) | > 100 µM (inactive) | > 100 µM (inactive) | > 100 µM (inactive) | > 100 µM (inactive) | > 100 µM (inactive) | > 100 µM (inactive) | > 100 µM (inactive) | > 100 µM (inactive) | > 100 µM (inactive) | > 100 µM (inactive) | > 100 | > 100 µM (inactive) | > 100 µM (inactive) | > 100 µM (inactive) | > 100 µM (inactive) | > 100 µM (inactive) | > 100 µM (inactive) | > 100 µM (inactive) | > 100 µM (inactive) |
| Cc1cc2cc3cc(C)c(N)cc3nc2cc1N [ACRIDINE YELLOW] | 0.416 µM (active) | 0.869 µM (active) | 3.85 µM (inactive) | 0.979 µM (active) | 0.798 µM (active) | 0.566 µM (active) | 0.509 µM (active) | 5.52 µM (inactive) | 1.51 µM (inactive) | 1.15 µM (inactive) | 1.06 µM (active) | 0.597 | 0.358 µM (active) | 0.757 µM (active) | 2.13 µM (inactive) | 0.693 µM (active) | 4.4 µM (inactive) | 0.794 µM (active) | 0.244 µM (active) | 0.448 µM (active) |
| C=CCOc1ccc(C2C(C(=O)OC)C(=O)CC(O)(c3ccccc3)C2C(=O)OC)cc1OC (stereo not given) | 17 µM (inactive) | 22.4 µM (inactive) | 58.1 µM (inactive) | 22.4 µM (inactive) | > 100 µM (inactive) | 23.6 µM (inactive) | 34.4 µM (inactive) | 30.6 µM (inactive) | 41 µM (inactive) | 15.9 µM (inactive) | 31.7 µM (inactive) | > 100 | 30.3 µM (inactive) | 63.1 µM (inactive) | 22.8 µM (inactive) | 26.9 µM (inactive) | 41.1 µM (inactive) | 31.8 µM (inactive) | 34.7 µM (inactive) | 41.7 µM (inactive) |
| Nc1cccc(OCc2nc(N)nc(N)c2-c2ccc(Cl)cc2)c1 | 53.5 µM (inactive) | 12.4 µM (inactive) | 41.1 µM (inactive) | 36.3 µM (inactive) | > 100 µM (inactive) | 49.7 µM (inactive) | 35.8 µM (inactive) | 36.1 µM (inactive) | 70 µM (inactive) | 60 µM (inactive) | 41.3 µM (inactive) | 39.2 | 32.9 µM (inactive) | 18.6 µM (inactive) | 44 µM (inactive) | 64.1 µM (inactive) | 56.4 µM (inactive) | 43.2 µM (inactive) | 37.3 µM (inactive) | 51.3 µM (inactive) |
| CC(C)Oc1c(-c2ccc(F)cc2)c(O)c2c3c1oc(=O)n3C=CC2C (stereo not given) | 14.7 µM (inactive) | 13.9 µM (inactive) | 13.2 µM (inactive) | 12.2 µM (inactive) | 24.7 µM (inactive) | 10.7 µM (inactive) | 13 µM (inactive) | 14 µM (inactive) | 15.7 µM (inactive) | 14 µM (inactive) | 7.05 µM (inactive) | 14.9 | 14.2 µM (inactive) | 16 µM (inactive) | 13.8 µM (inactive) | 15.2 µM (inactive) | 17.9 µM (inactive) | 11.8 µM (inactive) | 15.3 µM (inactive) | 11.5 µM (inactive) |
| CC[C@@H]1CC[C@@H]2[C@H](CC[C@]3(C)[C@@H](OC(C)=O)CC[C@@H]23)[C@H]1C(=O)OC | 23.4 µM (inactive) | 18.8 µM (inactive) | 25.3 µM (inactive) | 33.7 µM (inactive) | 23.1 µM (inactive) | 19.9 µM (inactive) | 24.4 µM (inactive) | 34.4 µM (inactive) | 32.2 µM (inactive) | 24.6 µM (inactive) | 23.7 µM (inactive) | 22 | 23 µM (inactive) | 16 µM (inactive) | 26.9 µM (inactive) | 21 µM (inactive) | 20.9 µM (inactive) | 24.4 µM (inactive) | 24.8 µM (inactive) | 25.2 µM (inactive) |
| CSc1nc(=O)cnn1C | > 100 µM (inactive) | > 100 µM (inactive) | > 100 µM (inactive) | > 100 µM (inactive) | > 100 µM (inactive) | > 100 µM (inactive) | > 100 µM (inactive) | > 100 µM (inactive) | > 100 µM (inactive) | > 100 µM (inactive) | > 100 µM (inactive) | > 100 | > 100 µM (inactive) | > 100 µM (inactive) | > 100 µM (inactive) | > 100 µM (inactive) | > 100 µM (inactive) | > 100 µM (inactive) | > 100 µM (inactive) | > 100 µM (inactive) |
| Cc1ccc(/N=N\c2c(O)c(S(=O)(=O)O)cc3cc(S(=O)(=O)O)ccc23)c(C)c1 | > 100 µM (inactive) | > 100 µM (inactive) | > 100 µM (inactive) | > 100 µM (inactive) | > 100 µM (inactive) | > 100 µM (inactive) | > 100 µM (inactive) | > 100 µM (inactive) | > 100 µM (inactive) | > 100 µM (inactive) | > 100 µM (inactive) | > 100 | > 100 µM (inactive) | > 100 µM (inactive) | > 100 µM (inactive) | > 100 µM (inactive) | > 100 µM (inactive) | > 100 µM (inactive) | > 100 µM (inactive) | > 100 µM (inactive) |
| NS(=O)(=O)c1ccc(NNC(=O)c2cccc3c(=O)c4ccccc4[nH]c23)cc1 | > 100 µM (inactive) | > 100 µM (inactive) | > 100 µM (inactive) | 45.1 µM (inactive) | > 100 µM (inactive) | 61.8 µM (inactive) | > 100 µM (inactive) | 62.4 µM (inactive) | > 100 µM (inactive) | 60.4 µM (inactive) | 65.6 µM (inactive) | 62.8 | 87.7 µM (inactive) | > 100 µM (inactive) | > 100 µM (inactive) | 91 µM (inactive) | 88.1 µM (inactive) | > 100 µM (inactive) | 58.5 µM (inactive) | > 100 µM (inactive) |
| CCc1nc2cc(/N=N/c3c(O)ccc4ccccc34)ccc2[nH]1 | 16.1 µM (inactive) | 22.3 µM (inactive) | 14.5 µM (inactive) | 18.8 µM (inactive) | 17.5 µM (inactive) | 14 µM (inactive) | 21.4 µM (inactive) | 18.7 µM (inactive) | 20.3 µM (inactive) | 12.6 µM (inactive) | 14.6 µM (inactive) | 12.6 | 16.1 µM (inactive) | 21.2 µM (inactive) | 22.3 µM (inactive) | 20.8 µM (inactive) | 19.7 µM (inactive) | 21.2 µM (inactive) | 19.6 µM (inactive) | 20.5 µM (inactive) |
| C[C@]12CCC3=NCCN3C1=CC[C@@H]1[C@@H]2CC[C@@]2(C)[C@H]1CC[C@]2(C)O | 14.6 µM (inactive) | 39.5 µM (inactive) | 24.4 µM (inactive) | 68.1 µM (inactive) | > 100 µM (inactive) | > 100 µM (inactive) | > 100 µM (inactive) | 44 µM (inactive) | 28.8 µM (inactive) | 23 µM (inactive) | 62.5 µM (inactive) | 53.2 | 38.3 µM (inactive) | 25.8 µM (inactive) | > 100 µM (inactive) | 20.7 µM (inactive) | 84.9 µM (inactive) | 59.6 µM (inactive) | 39.1 µM (inactive) | > 100 µM (inactive) |
| CC(C)c1nc(Cl)nc(Cl)c1Cl | 0.104 µM (active) | 2.27 µM (inactive) | 0.256 µM (active) | 0.0711 µM (active) | 0.414 µM (active) | 0.249 µM (active) | 1.58 µM (inactive) | 0.0113 µM (active) | 0.357 µM (active) | 0.365 µM (active) | 0.401 µM (active) | 0.279 | 1.29 µM (inactive) | 0.239 µM (active) | 0.295 µM (active) | 2.82 µM (inactive) | 0.241 µM (active) | 0.474 µM (active) | 0.172 µM (active) | 0.482 µM (active) |
| Cc1cc2c(-c3ccccc3)cc(=O)[nH]c2cc1N | > 100 µM (inactive) | > 100 µM (inactive) | > 100 µM (inactive) | > 100 µM (inactive) | > 100 µM (inactive) | > 100 µM (inactive) | > 100 µM (inactive) | > 100 µM (inactive) | > 100 µM (inactive) | > 100 µM (inactive) | > 100 µM (inactive) | > 100 | > 100 µM (inactive) | > 100 µM (inactive) | > 100 µM (inactive) | > 100 µM (inactive) | > 100 µM (inactive) | > 100 µM (inactive) | > 100 µM (inactive) | > 100 µM (inactive) |
